Assay results reported in patent US5010064A, “Inclusion complexes of dipyridamole with cyclodextrins” (Edmond Pharma s.r.l., priority 1987, dated 1991).

Legend:
[1] = system: platelet aggregation (ADP-induced) in platelet rich plasma of rabbits; experiment: platelet aggregation inhibiting activity ex vivo; assay type: in vivo, New Zealand rabbit
Description: The platelet rich plasma (PRP) has been separated by centrifugation for 10 minutes and has been suitable diluted to have always 250,000-300,000 platelet/mm^3 with plasma free of platelets (obtained from blood samples by further centrifugation for 10 minutes at 3200 rpm.
The platelet aggregation has been measured by the turbidimetric method under continuous stirring at 37° C., after having added ADP (Adenosine diphosphate to PRP (1.5 μg/ml).

[2] = dog, oral, 75 mg active ingredient; 0 min
Description: (§1) Studies have been carried out on Beagle dogs (male and female; body weight 10-11 kg) following an experimental scheme in "cross over".
(§2) The blood has been collected in the presence of eparine (10 U.I./ml) and the plasma, separated by centrifugation, has been immediately frozen and stored at -20° C. until extraction. After about 10-20 days of storage, 0.2 ml of plasma has been drawn from each sample and mixed for 15 seconds with 0.5 ml of NaOH 1N. Thereafter, 4 ml of terbutylmethylether have been added and the whole has been stirred for 1 minute. In order to separate the aqueous phase from the organic phase the whole has been centrifuged for 5 minutes. The organic phase has been then removed and dried to dryness under nitrogen stream. […] An excitation wave length of 285 nm has been chosen in connection with an emission filter of 470 nm.

[3] = pH higher than 5.5-6; cited from earlier work
[4] = cited from earlier work
in vivo = conditions: dog, plasma, po, 75 mg
Description: as §1, §2

average plasma concentration of dipyridamole [2]: 0 | concentration at 10 min (in vivo): 8 ng/mL | concentration at 20 min (in vivo): 24 ng/mL | concentration at 0.5 h (in vivo): 784 ng/mL | concentration at 0.75 h (in vivo): 1620 ng/mL | concentration at 1 h (in vivo): 2840 ng/mL | concentration at 1.5 h (in vivo): 3960 ng/mL | concentration at 2 h (in vivo): 4710 ng/mL | concentration at 2.5 h (in vivo): 4730 ng/mL | concentration at 3 h (in vivo): 2930 ng/mL | concentration at 4 h (in vivo): 1970 ng/mL | concentration at 5 h (in vivo): 1290 ng/mL | concentration at 6 h (in vivo): 628 ng/mL | concentration at 7 h (in vivo): 360 ng/mL
SMILES: OCCN(CCO)c1nc(N2CCCCC2)c2nc(N(CCO)CCO)nc(N3CCCCC3)c2n1 [dipyridamole, 2,2',2",2"'-(4,8-dipiperidinopyrimido/5,4,d/-pyrimidine-2,6-diyldinitrilo)tetraethanol]
% platelet aggregation ([1]; 10 mg/kg os, 0 hr): 83 ± 3.0% | % platelet aggregation ([1]; 10 mg/kg os, 0.5 hr): 63 ± 3.7% | % platelet aggregation ([1]; 10 mg/kg os, 1 hr): 44 ± 3.2% | % platelet aggregation ([1]; 10 mg/kg os, 2 hr): 40 ± 2.9% | % platelet aggregation ([1]; 10 mg/kg os, 4 hr): 49 ± 2.7% | % platelet aggregation ([1]; 20 mg/kg os, 0 hr): 87 ± 3.2% | % platelet aggregation ([1]; 20 mg/kg os, 0.5 hr): 58 ± 5.9% | % platelet aggregation ([1]; 20 mg/kg os, 1 hr): 29 ± 4.1% | % platelet aggregation ([1]; 20 mg/kg os, 2 hr): 27 ± 3.8% | % platelet aggregation ([1]; 20 mg/kg os, 4 hr): 38 ± 3.9% | solubility in water [3]: poor soluble in water | blood level at which not pharmacologically active ([4]; in vivo): 0.5-1 γ/ml | blood level with undesired side effects (cephalea and nausea) ([4]; in vivo): 2000 to 2500 ng/mL | adsorption ([4]; in words): not well adsorbed | variability of blood levels between and within subjects ([4]; in words): blood levels different from one to another subject and for repeated administrations in the same subject | blood level needed to be active as platelet aggregation inhibiting agent ([4]; man): higher than 1 mcg/ml | upper blood level (might show side effects such as cephalea and nausea) ([4]; man): 2.0 to 2.5 µg/mL
